Reference: US11534377B2, “Hair growth agent” (KOBAYASHI PHARMACEUTICAL CO., LTD., priority 2016, dated 2022)

How the values were obtained:
[1] = tested on: C3H/He mice; test: New hair growth promoting activity in telogen-phase mice after hair removal (Example 3); assay type: in vivo; settings: 5 wt % in 50% ethanol, once/day 100 μl
Excerpt: The hair follicle that produces a hair shaft is the only organ known to repeat growth and regression over the entire life. Such regular growth and regression are divided into the anagen phase, the catagen phase, and the telogen phase of a hair cycle. The body hair of the back of C3H/He mice is bound to be in the telogen phase 45 to 95 days after birth, and thus an extremely long telogen phase-bound period is observed compared with common mice, such as C57BL/6N mice, whose hair cycle of the body hair of the back lasts about 21 days in total for the anagen phase, the catagen phase, and the telogen phase. […] Therefore, by using C3H/He mice at 45 to 90 days after birth, new hair growth promoting activity can be evaluated. […]
The application was performed for two groups (test solution-applied group and negative control group (50% ethanol-applied group)), where each group consisted of five mice. On the basis of new hair growth score criteria (Table 15) according to appearance changes in a portion of the applied region that leaves the telogen phase and enters a regeneration phase, the degree of new hair growth in the applied region was quantified (range of 1 to 10 in which new hair growth scores concerning two items are summed) over time on day 0, 4, 5, 6, 7, 10, 11, 12, 13, 14, 17, 18, 19, 20, and 21 after hair removal. […]

[2] = tested on: C57BL/6N mice; test: Hair shaft diameter of regrown body hair after hair pull-out (Example 2); assay type: in vivo; settings: 1 wt % in 50% ethanol, once/day 100 μl, day 21 after the application; FIG. 15, P<0.01
Excerpt: In C57BL6/N mice, it is known that when body hair of the back is pulled out, hair cycles in the pulled-out region are forced to shift to the […], and as a result, the hair cycles in the pulled-out region are synchronized. Therefore, only hair in the anagen phase becomes observable by decreasing variations in hair cycles. Approximately 7 days after hair is pulled out, as a sign of the anagen phase, skin color changing into gray is observed as melanocytes in hair follicles start synthesizing melanin, in addition to growth of pigmented hair. Further, approximately 10 days after hair is pulled out, new hair growth is observed in the pulled-out region. […] Accordingly, hair growth activity can be evaluated from a viewpoint of an increase in hair shaft diameter by measuring the hair shaft diameter of body hair grown in the pulled-out region approximately 21 days after hair is pulled out. […]
The application was performed for two groups (test solution-applied group and negative control group (50% ethanol-applied group)), where each group consisted of six mice. […] About 20 hair shafts were collected from each mouse, and the hair shaft diameter was measured for 10 hair shafts randomly selected from 120 hair shafts in total collected from 6 mice of each group. […]

[3] = tested on: hair papilla cell spheroids; test: Hair papilla cell proliferation test by three-dimensional culture (Example 6); assay type: cell-based, C57BL/6N mouse; settings: final concentrations 0.05 wt %, 0.1 wt %, and 1 wt %, cultured for 3 days; FIG. 19
Protocol: In this Example, hair papilla cells prepared in a similar manner to Example 5 were seeded in a 96-well U-bottom microplate for cell culture (from Sumitomo Bakelite Co., Ltd.) at 6,000 cells/well and centrifuged with a plate centrifuge at room temperature and at a rotating speed of 1,000 rpm for 1 minute to yield three-dimensional hair papilla cell spheroids. The spheroids were cultured for 3 days by using each of test solutions A1 to A3 that were hair papilla cell culture media to which D-chiro-inositol dissolved in PBS was added at a final concentration of 0.05 wt %, 0.1 wt %, or 1 wt %; test solutions B1 to B3 that were hair papilla cell culture media to which myo-inositol dissolved in PBS was added at a final concentration of 0.05 wt %, 0.1 wt %, or 1 wt %; and a negative control that was a hair papilla cell culture medium to which PBS alone was added. The spheroids after culturing for 3 days were imaged by using a VHX2000 digital microscope (Keyence Corporation), and the area of the spheroids was calculated by using a digital microscope analysis tool. By calculating a spheroid area increase rate in the test solutions A1 to A3 and B1 to B3, relative to an area increase rate in the negative control as 100%, the proliferation of hair papilla cells in conditions further close to in vivo condition was quantified.

OC1C(O)C(O)C(O)C(O)C1O [D-chiro-inositol]
Average timing of new hair growth (new hair growth score reached 1 or more), number of days after hair removal ([1]; FIG. 17, negative control day 9): 4 days
New hair growth score vs negative control group ([1]; day 21 after hair removal, FIG. 16, P<0.05): significantly higher
Hair shaft diameter vs negative control group [2]: significantly larger
Hair papilla cell spheroid area vs negative control [3]: increased significantly
